Converted amounts (≈) assume the structure as drawn. Read-outs that look alike come from different tables or passages of the source.

The subject of one test is E. coli SA/2 (ESBL). Put plainly: Antibacterial MIC/MBC (broth microdilution). It counts as cell-based, Escherichia coli. An excerpt:
(§1) Twelve reference bacterial strains and nine MDR clinically relevant bacterial strains were used in this study. Gram-negative bacteria comprised reference strains E. coli ATCC 25922, K. pneumoniae ATCC 13883, Salmonella enterica serovar Typhimurium CECT 443, P. aeruginosa ATCC 27853, A. baumannii ATCC 19606, C. jejuni ATCC 33560 (ATCC—American Type Culture Collection; CECT—Colección Espanola de Cultivos Tipo); clinical isolates E. coli SA/2, an extended-spectrum β-lactamase (ESBL)-producing strain and P. aeruginosa 33b, a pan-drug-resistant isolate; and animal isolates C. jejuni P5/4, a ciprofloxacin-resistant strain, C. jejuni 4432, C. jejuni 4433, C. jejuni 4448, and E. coli 2252, a COL-resistant strain [42]. Gram-positive strains included S. aureus ATCC 29213, E. faecalis ATCC 29212, S. pyogenes ATCC 19615, and environmental isolates methicillin-resistant S. aureus (MRSA) 66/1 [43], and VAN-resistant enterococci (VRE) E. faecalis B3/101 [44]. Gram-negative fish pathogens Yersinia ruckeri ATCC 29473, Listonella anguillarum ATCC 1924, and Tenacibaculum maritimum ATCC 43397 were also included.
(§2) Strains were kept in Trypto-Casein Soy agar (TSA—Biokar Diagnostics, Allone, Beauvais, France) slants and, before each assay, were sub-cultured in Mueller-Hinton agar (MHA—Biokar Diagnostics, Allone, Beauvais, France). Y. ruckeri ATCC 29473 and L. anguillarum ATCC 1924 were kept in Nutrient Agar (Condalab, Madrid, Spain) and T. maritimum ATCC 43397 was kept in TMM agar (Condalab, Madrid, Spain), and were sub-cultured in the respective culture media before each assay. For S. pyogenes ATCC 19615, CAMHB was supplemented with 3.75% lysed horse blood (LBH—Oxoid, Basingstoke, England), whereas for C. jejuni it was supplemented with 2.5% LHB. Colony-forming unit counts of the inoculum were conducted to determine the initial inoculum size (which should be approximately 5×10^5 CFU/mL). Sterility and growth controls were included in each assay. The 96-well U-shaped untreated polystyrene microtiter plates were incubated for 20 h at 37 degrees C. (42 degrees C. for C. jejuni, in a microaerophilic atmosphere) and the minimal inhibitory concentration (MIC) was determined as the lowest concentration of compound that prevented visible growth. The minimal bactericidal concentration (MBC) was determined by spreading 100 μL of the content of the wells with no visible growth on MH plates. The MBC was determined as the lowest concentration of compound that killed 99.9% of the initial inoculum after overnight incubation at 37 degrees C. Two independent assays were performed for reference and MDR strains.
(§3) An initial screening of the antibacterial activity of the compounds was performed by the Kirby-Bauer disk diffusion method, as recommended by the Clinical and Laboratory Standards Institute (CLSI). Briefly, sterile 6 mm blank paper disks (Oxoid, Basingstoke, England) impregnated with 15 μg of each compound were placed on inoculated MH agar plates. A blank disk with dimethylsulfoxide (DMSO) was used as a negative control. MH inoculated plates were incubated for 18-20 h at 37 degrees C. At the end of incubation, the inhibition halos where measured. The MIC was used to determine the antibacterial activity of each compound, in accordance with the recommendations of the CLSI. Two-fold serial dilutions of the compounds were prepared in Mueller-Hinton Broth 2 (MHB2—Sigma-Aldrich, St. Louis, MO, USA) within the concentration range of 0.062-64 μg/mL. CTX ranging between 0.031-16 μg/mL was used as a control. Sterility and growth controls were included in each assay. Purity checks and colony counts of the inoculum suspensions were also performed in order to ensure that the final inoculum density closely approximates the intended number (5×10^5 CFU/mL). The MIC was determined as the lowest concentration of compound that inhibited growth of the bacteria. The MBC was assessed by spreading 10 μL of culture collected from wells showing no visible growth on MH agar plates. […]
Background: In broth dilution the organism is exposed to a series of concentrations in liquid medium.

The subject of test [1] is E. coli 2252 (COL-resistant). In words: Antibacterial MIC/MBC (broth microdilution). Type of test: cell-based, Escherichia coli.
Text: as §1, §2, §3

Test [2] concerns Gram-negative and Gram-positive bacteria. In words: Antibacterial activity, whole strain panel. It counts as cell-based. The conditions noted are these: for spectrum of antibacterial activity (in words): all bacterial strains tested.
Text: as §1, §2, §3

Another test has as its system C. jejuni 4433. Put plainly: Antibacterial MIC/MBC (broth microdilution). It counts as cell-based, Campylobacter jejuni.
Text: as §1, §2, §3

The next test deals with C. jejuni 4432. In words: Antibacterial MIC/MBC (broth microdilution). It counts as cell-based, Campylobacter jejuni.
Text: as §1, §2, §3

A further test relates to C. jejuni 4448. Put plainly: Antibacterial MIC/MBC (broth microdilution). It counts as cell-based, Campylobacter jejuni.
Text: as §1, §2, §3

Another test has as its system C. jejuni P5/4. Put plainly: Antibacterial MIC/MBC (broth microdilution). It counts as cell-based, Campylobacter jejuni.
Text: as §1, §2, §3

[3] abbreviates: Campylobacter jejuni, read-out: MBC.
Where [4] appears, read: Campylobacter jejuni, read-out: MIC.

As usually defined, the MBC is the lowest tested concentration that kills the bacteria rather than only halting them. A word on the MIC: it is the smallest concentration in the dilution series that meets the test's criterion for growth inhibition. Take `C[C@H](CCC(=O)NCCN)[C@H]1CC[C@H]2[C@@H]3CC[C@@H]4C[C@H](O)CC[C@]4(C)[C@H]3C[C@H](O)[C@]12C` [Compound 1, (R)—N-(2-aminoethyl)-4-((3R,5R,8R,9S,10S,12S,13R,14S,17R)-3,12-dihydroxy-10,13-dimethylhexadecahydro-1H-cyclopenta[a]phenanthren-17-yl) pentanamida]: the “antibacterial activity (in words)” value with E. coli SA/2 (ESBL) (E. coli SA/2) was “active”; in test [1] (E. coli 2252) it was “active”; with C. jejuni 4433 it was “showed antimicrobial activity”; with C. jejuni 4432, “showed antimicrobial activity”; with C. jejuni 4448, “showed antimicrobial activity”; with C. jejuni P5/4, “active”. Besides, the MBC in the test with E. coli SA/2 (ESBL) (E. coli SA/2 (ESBL)) was determined as 32 µg/mL (≈ 73.6 µM); in the test with C. jejuni 4433, 64 µg/mL (≈ 147 µM); against C. jejuni 4432 it was 64 µg/mL (≈ 147 µM); against C. jejuni 4448 it was 64 µg/mL (≈ 147 µM); against C. jejuni P5/4, 32 µg/mL (≈ 73.6 µM). Further, the MIC against E. coli SA/2 (ESBL) (E. coli SA/2 (ESBL)) was 32 µg/mL (≈ 73.6 µM); in test [1] (E. coli 2252 (COL-resistant)) it was 64 µg/mL (≈ 147 µM); against C. jejuni 4433, 64 µg/mL (≈ 147 µM); against C. jejuni 4432, 64 µg/mL (≈ 147 µM); in the test with C. jejuni 4448 it was 64 µg/mL (≈ 147 µM); in the test on C. jejuni P5/4, 32 µg/mL (≈ 73.6 µM). Moreover, the “activity against Gram-negative bacteria (in words)” value in test [2] is recorded as “exhibited activities”. The “spectrum of antibacterial activity (in words)” value in test [2] is reported as “active in every bacterial strain tested”.
As for `C[C@H](CCC(=O)N1CCN(C(=O)CC[C@H](C)[C@@H]2CC[C@@H]3[C@H]4CC[C@H]5C[C@@H](O)CC[C@@]5(C)[C@@H]4C[C@@H](O)[C@]32C)CC1)[C@H]1CC[C@H]2[C@@H]3CC[C@@H]4C[C@H](O)CC[C@]4(C)[C@H]3C[C@H](O)[C@]12C` [Compound 4, (R)-4-((3R,5R,8R,9S,10S,12S,13R,14S,17R)-3,12-dihydroxy-10,13-dimethylhexadecahydro-1H-cyclopenta[a]phenanthren-17-yl)-1-(4-((S)-4-((3S,5S,8S,9R,10R,12R,13S,14R,17S)-3,12-dihydroxy-10,13-dimethylhexadecahydro-1H-cyclopenta[a]phenanthren-17-yl)pentanoyl)piperazin-1-yl) pentan-1-one], the MBC with E. coli SA/2 (ESBL) (Escherichia coli) is over 64 µg/mL; in test [1] (Escherichia coli, E. coli 2252 (COL-resistant), read-out: MBC) it was over 64 µg/mL; with C. jejuni 4433 (setting [3]), over 64 µg/mL; in the test on C. jejuni 4432 (setting [3]) it was over 64 µg/mL; with C. jejuni 4448 (setting [3]) it was over 64 µg/mL; in the test on C. jejuni P5/4 (setting [3]) it was over 64 µg/mL. Further, the MIC with E. coli SA/2 (ESBL) (Escherichia coli) was over 64 µg/mL; in test [1] (Escherichia coli, E. coli 2252 (COL-resistant), read-out: MIC), over 64 µg/mL; in the test with C. jejuni 4433 (setting [4]), over 64 µg/mL; with C. jejuni 4432 (setting [4]) it was over 64 µg/mL; in the test with C. jejuni 4448 (setting [4]) it was over 64 µg/mL; in the test with C. jejuni P5/4 (setting [4]), over 64 µg/mL. The “activity against Gram-negative bacteria (in words)” value in test [2] is “exhibited activities”. For the same compound, the “spectrum of antibacterial activity (in words)” value in test [2] is “active in eight of the tested strains”.

Values taken from patent US20250002450A1, “CATIONIC STEROID COMPOUNDS, METHOD OF OBTAINING THEREOF, FORMULATIONS COMPRISING THEREOF AND THEIR USES” (UNIVERSIDADE DO PORTO, priority 2021, published 2025).
